# Data published in article PMC9287138, “Proteasome activator 28γ (PA28γ) allosterically activates trypsin-like proteolysis by binding to the α-ring of the 20S proteasome” (The Journal of Biological Chemistry, 2022).
# Biological target: T1, human 20S proteasome (H20S) (Homo sapiens, UniProt P28074+Q99436)
# T1 construct: gene PSMB5; with Proteasome subunit beta type-6 (caspase-like site); Proteasome subunit alpha type-6; Proteasome subunit alpha type-2; Proteasome subunit alpha type-4; Proteasome subunit alpha type-7; Proteasome subunit alpha type-5; Proteasome subunit alpha type-1; Proteasome subunit alpha type-3; Proteasome subunit beta type-3; Proteasome subunit beta type-2; Proteasome subunit beta type-1; Proteasome subunit beta type-4
# Experiment: inhibition of boc-RLR-AMC hydrolysis
# Type: biochemical
structure (smiles),measurement,value
CC(=O)N[C@@H](CC(C)C)C(=O)N[C@@H](CC(C)C)C(=O)N[C@H](C=O)CCCNC(=N)N [leupeptin],inhibition at 40 µM,94 to 100%
